{"source": "patent US10266741B2", "about": "“Apparatus and method for addition of ADH enzyme inhibitors to existing engine cooling systems” (priority 2016, dated 2019)", "origin": "cited, not measured here", "test_system": "humans", "settings": "ingestion, Federal Register Vol. 63, No. 27, Feb. 10, 1998"}
{"smiles": "OCCO", "note": "[EG, ethylene glycol]", "values": [{"measurement": "known toxin to humans at relatively low levels (reported as low as)", "value": "1,570 mg/kg"}]}
